Source: patent US8791079B2, “Methods for treating heart failure by inhibiting the mitochondrial sodium-calcium exchanger (mNCE)” (priority 2009, dated 2014)
Like-named read-outs stand apart in the source and are kept apart here.

Tests used:
HF patients = conditions: cited from earlier work; for mortality: post hoc analysis of DIG trial
Guinea pig hearts [1] = experiment: Hemodynamics of isolated perfused hearts (Langendorff); conditions: 25-nM isoproterenol in ouabain-treated hearts, absence (isoproterenol) or presence of CGP-37157
Source text: (§1) Guinea pig hearts were quickly excised under anesthesia and mounted on a modified Langendorff apparatus attached to a Powerlab system (AD Instruments, Colorado Springs, Colo.). Hearts were perfused with gassed (95/5% O2/CO2) control buffer containing: 118-mM NaCl, 24-mM NaHCO3, 1.2-mM KH2PO4, 4.75-mM KCl, 1.2-mM MgSO4, 2.0-mM CaCl2, and 10-mM glucose. A buffer-filled latex balloon (Harvard apparatus) was inserted through the mitral valve into the left ventricle. Hearts were suspended in a buffer-filled heating chamber maintained at 37° C. and two electrodes were placed into the bath for volume-conducted electrocardiogram recordings. Heart rate, left ventricular developed pressure (LVDP), maximal rates of contraction and relaxation (±dP/dt), oxygen consumption, and electrocardiograms (ECG) were recorded on a computer. After a ten-minute equilibration period, hearts were subjected to the following protocol: ten-minute baseline recording while the heart was perfused with control buffer, ten-minute recording while 0.25-μM ouabain with or without 1 μM CGP-37157, and sixty-minute recording while hearts were stimulated with 25-nM isoproterenol. The measurements of hemodynamic parameters were determined by taking the average during the last two minutes before ouabain treatment (baseline) and for two minutes during the maximal effect on LVDP of either ouabain or isoproterenol.
In Table 1A-1C, hemodynamics of isolated perfused hearts were recorded at baseline, with ouabain treatment (1 μM), and with ouabain plus isoproterenol (100 nM) stimulation with or without CGP-37157 (1 μM). HR, heart rate; LVDP, left ventricular developed pressure; Oua: ouabain; CGP: CGP-37157; VF: ventricular fibrillation. *p<0.05 compared to group without CGP; † p<0.05 compared to baseline.

Guinea pig hearts [2] = experiment: Oxygen consumption in isolated perfused hearts; conditions: ouabain followed by isoproterenol, without (isoproterenol) or with CGP-37157
Source text: as §1
Cardiac O2 concentration was measured with an O2 probe attached to a PowerLab system (AD Instruments). The probe was calibrated with 95% O2-saturated buffer as 100% and 100% N2-saturated buffer as 0%. The molar concentration of O2 consumption was calculated from percentage concentration with the following equation: VO2(μmol/min/g dwt)=CF×(0.02373/22.414)×((760−p)/760)×(ΔO2%/100)/dwt
where CF is coronary flow (mL/min); 0.02373 is the absorption coefficient of O2 in H2O at 37° C.; 22.414 is the volume (L) of 1 mol gas at STP; 760 is 1 atm in mm Hg; p equals 47.067, which is the vapor pressure of H2O at 37° C.; ΔO2% is the difference in O2 percentage concentration between inflow buffer collected from cannula before heart was mounted and outflow buffer collected from pulmonary artery; dwt is dry heart weight.

Compound | overall mortality (HF patients; DIG trial, HF patients) | mortality (HF patients; SDC ≧1.0 ng/mL) | mortality (HF patients; serum digoxin concentration (SDC) 0.5-0.9 ng/mL) | increase of +dP/dt compared to the level with ouabain treatment (Guinea pig hearts [1]) [%] | increase of LVDP compared to the level with ouabain treatment (Guinea pig hearts [1]) | increase of heart rate (HR) compared to the level with ouabain treatment (Guinea pig hearts [1]) [%] | increase of −dP/dt compared to the level with ouabain treatment (Guinea pig hearts [1]) [%] | increase of whole-heart oxygen consumption (VO2) compared to baseline (Guinea pig hearts [2]) [%]
C[C@H]1O[C@@H](OC2[C@@H](O)C[C@H](OC3[C@@H](O)CC(O[C@H]4CC[C@@]5(C)[C@H](CC[C@@H]6[C@@H]5C[C@@H](O)[C@]5(C)[C@@H](C7=CC(=O)OC7)CC[C@]65O)C4)O[C@@H]3C)O[C@@H]2C)C[C@H](O)C1O (stereo in doubt) [digoxin, 4-[(3S,5R,8R,9S,10S,12R,13S,14S)-3-[(2S,4S,5R,6R)-5-[(2S,4S,5R,6R)-5-[(2S,4S,5R,6R)-4,5-dihydroxy-6-methyl-oxan-2-yl]oxy-4-hydroxy-6-methyl-oxan-2-yl]oxy-4-hydroxy-6-methyl-oxan-2-yl]oxy-12,14-dihydroxy-10,13-dimethyl-1,2,3,4,5,6,7,8,9,11,12,15,16,17-tetradecahydrocyclopenta[a]phenanthren-17-yl]-5H-furan-2-one] | did not affect overall mortality | no effect on mortality | reduced mortality of all HF patients |  |  |  |  | 
CC(C)NCC(O)c1ccc(O)c(O)c1 (centres unmarked) [isoproterenol, 4-[1-hydroxy-2-(isopropylamino)ethyl]benzene-1,2-diol, reference compound] |  |  |  | 57 | not increased further | 28 | 52 | 25
